Test results from ChEMBL document CHEMBL1201862, “PubChem BioAssay data set” (2004).
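96-well plates; 48 h exposure; 5 concentrations. Endpoints by linear interpolation between flanking doses. Not reached: highest tested concentration assigned. GI50 = concentration required for 50% inhibition of growth.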 Activity calls are given as the source filed them. No stated cut-off is given here; in the data, active = GI50 up to about 1.1 µM and inactive = higher.

How the values were obtained:
Assay in all cases: DTP human tumour cell line panel, 48 h
786-0 = test system: 786-0
A549 = test system: A549
ACHN = test system: ACHN
BT-549 = test system: BT-549
CAKI-1 = test system: CAKI-1
COLO 205 = test system: COLO 205
DU-145 = test system: DU-145
HCC 2998 = test system: HCC 2998
HCT-116 = test system: HCT-116
HCT-15 = test system: HCT-15
HL-60 = test system: HL-60
HOP-62 = test system: HOP-62
HOP-92 = test system: HOP-92
HT-29 = test system: HT-29
Hs-578T = test system: Hs-578T
IGROV-1 = test system: IGROV-1
K562 = test system: K562
KM12 = test system: KM12
LOX IMVI = test system: LOX IMVI
M14 = test system: M14
MCF7 = test system: MCF7
MDA-MB-231 = test system: MDA-MB-231
MDA-MB-435 = test system: MDA-MB-435
MDA-N = test system: MDA-N
MOLT-4 = test system: MOLT-4
Malme-3M = test system: Malme-3M
NCI-H23 = test system: NCI-H23
NCI-H522 = test system: NCI-H522
NCI/ADR-RES = test system: NCI/ADR-RES
OVCAR-3 = test system: OVCAR-3
OVCAR-4 = test system: OVCAR-4
OVCAR-8 = test system: OVCAR-8
PC-3 = test system: PC-3
RPMI-8226 = test system: RPMI-8226
SF-268 = test system: SF-268
SF-295 = test system: SF-295
SF-539 = test system: SF-539
SK-MEL-28 = test system: SK-MEL-28
SK-MEL-5 = test system: SK-MEL-5
SK-OV-3 = test system: SK-OV-3
SN12C = test system: SN12C
SNB-19 = test system: SNB-19
SNB-75 = test system: SNB-75
SR = test system: SR
SW-620 = test system: SW-620
T47D = test system: T47D
TK-10 = test system: TK-10
U-251 = test system: U-251
UACC-257 = test system: UACC-257
UACC-62 = test system: UACC-62
A498 = test system: A498
CCRF-CEM = test system: CCRF-CEM
EKVX = test system: EKVX
NCI-H226 = test system: NCI-H226
NCI-H460 = test system: NCI-H460
OVCAR-5 = test system: OVCAR-5
RXF 393 = test system: RXF 393
SK-MEL-2 = test system: SK-MEL-2
UO-31 = test system: UO-31

COC(=O)C1=Nc2c(C)nn(-c3ccccc3)c2N=C(c2ccc(C)cc2)C1
GI50 (786-0): > 10 µM (inactive) | GI50 (A549): > 10 µM (inactive) | GI50 (ACHN): > 10 µM (inactive) | GI50 (BT-549): > 10 µM (inactive) | GI50 (CAKI-1): > 10 µM (inactive) | GI50 (COLO 205): > 10 µM (inactive) | GI50 (DU-145): > 10 µM (inactive) | GI50 (HCC 2998): > 10 µM (inactive) | GI50 (HCT-116): > 10 µM (inactive) | GI50 (HCT-15): > 10 µM | GI50 (HL-60): > 10 µM (inactive) | GI50 (HOP-62): > 10 µM (inactive) | GI50 (HOP-92): > 10 µM (inactive) | GI50 (HT-29): > 10 µM (inactive) | GI50 (Hs-578T): > 10 µM (inactive) | GI50 (IGROV-1): > 10 µM (inactive) | GI50 (K562): > 10 µM (inactive) | GI50 (KM12): > 10 µM (inactive) | GI50 (LOX IMVI): > 10 µM (inactive) | GI50 (M14): > 10 µM (inactive) | GI50 (MCF7): > 10 µM (inactive) | GI50 (MDA-MB-231): > 10 µM (inactive) | GI50 (MDA-MB-435): > 10 µM (inactive) | GI50 (MDA-N): > 10 µM (inactive) | GI50 (MOLT-4): > 10 µM (inactive) | GI50 (Malme-3M): > 10 µM (inactive) | GI50 (NCI-H23): > 10 µM (inactive) | GI50 (NCI-H522): > 10 µM (inactive) | GI50 (NCI/ADR-RES): > 10 µM (inactive) | GI50 (OVCAR-3): > 10 µM (inactive) | GI50 (OVCAR-4): > 10 µM (inactive) | GI50 (OVCAR-8): > 10 µM (inactive) | GI50 (PC-3): > 10 µM (inactive) | GI50 (RPMI-8226): > 10 µM (inactive) | GI50 (SF-268): > 10 µM (inactive) | GI50 (SF-295): > 10 µM (inactive) | GI50 (SF-539): > 10 µM (inactive) | GI50 (SK-MEL-28): > 10 µM (inactive) | GI50 (SK-MEL-5): > 10 µM (inactive) | GI50 (SK-OV-3): > 10 µM (inactive) | GI50 (SN12C): > 10 µM (inactive) | GI50 (SNB-19): > 10 µM (inactive) | GI50 (SNB-75): > 10 µM (inactive) | GI50 (SR): > 10 µM (inactive) | GI50 (SW-620): > 10 µM (inactive) | GI50 (T47D): > 10 µM (inactive) | GI50 (TK-10): > 10 µM (inactive) | GI50 (U-251): > 10 µM (inactive) | GI50 (UACC-257): > 10 µM (inactive) | GI50 (UACC-62): > 10 µM (inactive)

O=C(O)C1CCc2ccc3ccccc3c2C1c1cccc2ccccc12 (stereo not drawn)
GI50 (786-0): 18.2 µM (inactive) | GI50 (A498): 30.8 µM (inactive) | GI50 (A549): 16.5 µM (inactive) | GI50 (ACHN): 29.6 µM (inactive) | GI50 (BT-549): 19.1 µM (inactive) | GI50 (CAKI-1): 68.2 µM (inactive) | GI50 (CCRF-CEM): 19.1 µM (inactive) | GI50 (COLO 205): 25.9 µM (inactive) | GI50 (DU-145): 25.8 µM (inactive) | GI50 (EKVX): 30.5 µM (inactive) | GI50 (HCT-116): 15.6 µM (inactive) | GI50 (HCT-15): 19.4 µM | GI50 (HL-60): 26.6 µM (inactive) | GI50 (HOP-62): 19 µM (inactive) | GI50 (HOP-92): 19.1 µM (inactive) | GI50 (HT-29): 17.4 µM (inactive) | GI50 (Hs-578T): 33.2 µM (inactive) | GI50 (IGROV-1): 22.9 µM (inactive) | GI50 (K562): 32.3 µM (inactive) | GI50 (KM12): 21.9 µM (inactive) | GI50 (LOX IMVI): 19.5 µM (inactive) | GI50 (M14): 17.6 µM (inactive) | GI50 (MCF7): 34.7 µM (inactive) | GI50 (MDA-MB-231): 30.2 µM (inactive) | GI50 (MDA-MB-435): 48.6 µM (inactive) | GI50 (MDA-N): 22.1 µM (inactive) | GI50 (MOLT-4): 19.8 µM (inactive) | GI50 (Malme-3M): 22.4 µM (inactive) | GI50 (NCI-H226): 24.7 µM (inactive) | GI50 (NCI-H460): 20 µM (inactive) | GI50 (NCI-H522): 21.4 µM (inactive) | GI50 (NCI/ADR-RES): 23.3 µM (inactive) | GI50 (OVCAR-3): 16.3 µM (inactive) | GI50 (OVCAR-4): 29 µM (inactive) | GI50 (OVCAR-5): 18.4 µM (inactive) | GI50 (OVCAR-8): 24.2 µM (inactive) | GI50 (PC-3): 19.3 µM (inactive) | GI50 (RPMI-8226): 27.9 µM (inactive) | GI50 (RXF 393): 19 µM (inactive) | GI50 (SF-268): 27.9 µM (inactive) | GI50 (SF-295): 23.9 µM (inactive) | GI50 (SF-539): 23.8 µM (inactive) | GI50 (SK-MEL-28): 18.7 µM (inactive) | GI50 (SK-MEL-2): 18.2 µM (inactive) | GI50 (SK-MEL-5): 16.5 µM (inactive) | GI50 (SK-OV-3): 36.1 µM (inactive) | GI50 (SN12C): 24.2 µM (inactive) | GI50 (SNB-19): 19.3 µM (inactive) | GI50 (SNB-75): 22.9 µM (inactive) | GI50 (SR): 20.8 µM (inactive) | GI50 (SW-620): 28.2 µM (inactive) | GI50 (T47D): 43.9 µM (inactive) | GI50 (TK-10): 44.5 µM (inactive) | GI50 (U-251): 17.9 µM (inactive) | GI50 (UACC-257): 25.9 µM (inactive) | GI50 (UACC-62): 15.1 µM (inactive) | GI50 (UO-31): 25.8 µM (inactive)

COc1cc2c(cc1OC)C(=O)/C(=C/c1ccc(O)cc1)CC2
GI50 (786-0): > 10 µM (inactive) | GI50 (A549): > 10 µM (inactive) | GI50 (ACHN): > 10 µM (inactive) | GI50 (BT-549): > 10 µM (inactive) | GI50 (CAKI-1): 5.82 µM (inactive) | GI50 (CCRF-CEM): 1.97 µM (inactive) | GI50 (COLO 205): > 10 µM (inactive) | GI50 (DU-145): > 10 µM (inactive) | GI50 (EKVX): > 10 µM (inactive) | GI50 (HCC 2998): > 10 µM (inactive) | GI50 (HCT-116): > 10 µM (inactive) | GI50 (HCT-15): > 10 µM | GI50 (HL-60): 7.31 µM (inactive) | GI50 (HOP-62): > 10 µM (inactive) | GI50 (HOP-92): > 10 µM (inactive) | GI50 (HT-29): > 10 µM (inactive) | GI50 (Hs-578T): > 10 µM (inactive) | GI50 (IGROV-1): > 10 µM (inactive) | GI50 (K562): > 10 µM (inactive) | GI50 (KM12): > 10 µM (inactive) | GI50 (LOX IMVI): > 10 µM (inactive) | GI50 (M14): > 10 µM (inactive) | GI50 (MCF7): > 10 µM (inactive) | GI50 (MDA-MB-231): > 10 µM (inactive) | GI50 (MDA-MB-435): > 10 µM (inactive) | GI50 (MDA-N): > 10 µM (inactive) | GI50 (MOLT-4): > 10 µM (inactive) | GI50 (Malme-3M): > 10 µM (inactive) | GI50 (NCI-H226): > 10 µM (inactive) | GI50 (NCI-H23): > 10 µM (inactive) | GI50 (NCI-H460): > 10 µM (inactive) | GI50 (NCI/ADR-RES): > 10 µM (inactive) | GI50 (OVCAR-3): > 10 µM (inactive) | GI50 (OVCAR-4): > 10 µM (inactive) | GI50 (OVCAR-5): > 10 µM (inactive) | GI50 (OVCAR-8): > 10 µM (inactive) | GI50 (PC-3): > 10 µM (inactive) | GI50 (RPMI-8226): > 10 µM (inactive) | GI50 (RXF 393): > 10 µM (inactive) | GI50 (SF-268): > 10 µM (inactive) | GI50 (SF-295): > 10 µM (inactive) | GI50 (SF-539): > 10 µM (inactive) | GI50 (SK-MEL-28): > 10 µM (inactive) | GI50 (SK-MEL-2): > 10 µM (inactive) | GI50 (SK-MEL-5): > 10 µM (inactive) | GI50 (SK-OV-3): > 10 µM (inactive) | GI50 (SN12C): > 10 µM (inactive) | GI50 (SNB-19): > 10 µM (inactive) | GI50 (SR): > 10 µM (inactive) | GI50 (SW-620): > 10 µM (inactive) | GI50 (T47D): > 10 µM (inactive) | GI50 (TK-10): > 10 µM (inactive) | GI50 (U-251): > 10 µM (inactive) | GI50 (UACC-257): > 10 µM (inactive) | GI50 (UACC-62): > 10 µM (inactive) | GI50 (UO-31): 2.34 µM (inactive)
